Results as given in patent publication US8106031B2, “Hydrolytically-resistant boron-containing therapeutics and methods of use” (Anacor Pharmaceuticals, Inc., priority 2006, dated 2012).
≈ marks a conversion by molar mass, not a printed value. Read-outs that look alike come from different tables or passages of the source.

Key:
[1] = system: Candida albicans; assay: MIC against C. albicans (NCCLS broth dilution); type: cell-based; conditions: Candida albicans; Table 1; over 90% reduction of growth, 24-168 h at 35° C.; read-out: Minimum inhibitory concentration, C. albicans
Excerpt: (§1) To determine the antifungal activity of these compounds we screened for their minimum inhibitory concentrations (MIC) against the major dermatophytes that cause onychomycosis, T. rubrum and T. mentagrophytes, and against the yeasts and molds C. albicans, C. neoformans and A. fumigatus to test for their broad spectrum activity. The antifungal agent ciclopirox, currently in use for the topical treatment of onychomycosis, was used as a reference.
(§2) All MIC testing against Trichophyton rubrum, Trichophyton mentagrophytes, Candida albicans, Cryptococcus neoformans and Aspergillus fumigatus were determined following the National Committee for Clinical Laboratory Standards (NCCLS) guidelines for antimicrobial testing of yeasts and filamentous fungi.^i,ii
(§3) Two-fold serial dilutions of the test compounds were prepared in 96-well plates. […] Pfaller M A, Chaturvedi V, Espinel-Ingroff A, Ghannoum M A, Gosey L L, Odds F C, Rex J H, Rinaldi M G, Sheehan D J, Walsh T J, Warnock D W. NCCLS publication M27-A2—Reference Method for Broth Dilution Antifungal Susceptibility Testing of Yeasts; Approved Standard—Second Edition. […] Pfaller M A, Chaturvedi V, Espinel-Ingroff A, Ghannoum M A, Gosey L L, Odds F C, Rex J H, Rinaldi M G, Sheehan D J, Walsh T J, Warnock D W. NCCLS publication M38-A—Reference Method for Broth Dilution Antifungal Susceptibility Testing of Filamentous Fungi; Approved Standard.

[2] = system: Aspergillus fumigatus; assay: MIC against A. fumigatus (NCCLS broth dilution); type: cell-based; conditions: Aspergillus fumigatus; Table 1; over 90% reduction of growth, 24-168 h at 35° C.; read-out: Minimum inhibitory concentration, A. fumigatus
Excerpt: as §1, §2, §3

[3] = Penetration of the nail plate; type: in vitro ADME; conditions: result in words
[4] = system: Trichophyton mentagrophytes; assay: MIC against T. mentagrophytes (NCCLS broth dilution); type: cell-based; conditions: Trichophyton mentagrophytes; Table 1; over 90% reduction of growth, 24-168 h at 35° C.; read-out: Minimum inhibitory concentration, T. mentagrophytes
Excerpt: as §1, §2, §3

[5] = system: Cryptococcus neoformans; assay: MIC against C. neoformans (NCCLS broth dilution); type: cell-based; conditions: Cryptococcus neoformans; Table 1; over 90% reduction of growth, 24-168 h at 35° C.; read-out: Minimum inhibitory concentration, C. neoformans
Excerpt: as §1, §2, §3

[6] = system: Trichophyton rubrum; assay: MIC against T. rubrum (NCCLS broth dilution); type: cell-based; conditions: Trichophyton rubrum; Table 1; over 90% reduction of growth, 24-168 h at 35° C.; read-out: Minimum inhibitory concentration, T. rubrum
Excerpt: as §1, §2, §3

[7] = LogP; type: physicochemical
Excerpt: (§4) Further discussion, and assays for testing log P, molecular weight and water solubility are described in U.S. patent application Ser. Nos. 11/357,687 and 11/505,591, which are incorporated herein by reference.

[8] = Water solubility; type: physicochemical
Excerpt: as §4

[9] = Plasma protein binding; type: in vitro ADME

MIC [1] [µg/mL]	MIC [2] [µg/mL]	penetration of the nail plate [3]	MIC [4] [µg/mL]	MIC [5] [µg/mL]	MIC [6] [µg/mL]	logP ([7]; table of b228, read-out: eLogP)	Compound	solubility [8] [µg/mL]	logP ([7]; read-out: LogP)	fraction unbound [9]
0.5 (≈ 2.41 µM)	1 (≈ 4.82 µM)	penetrates the nail plate poorly	0.5 (≈ 2.41 µM)	0.5 (≈ 2.41 µM)	0.5 (≈ 2.41 µM)		Cc1cc(C2CCCCC2)n(O)c(=O)c1 [Ciclopirox, reference compound]			
		penetrates the nail plate poorly				3.55	Fc1ccc2c(c1)COB2c1ccccc1 [Compound 3]			
							OB1OCc2cc(F)ccc21 [drawing 88]	> 100	1.9	0.34
							OB1OCc2cc(Cl)ccc21 [drawing 89]	> 100	2.3	0.17
